# Where two headings read alike, the source gives them in different places.
# Key:
# CYP2C9 [1] = target: T1, CYP2C9 (Homo sapiens, UniProt P11712); conditions: compared with diclofenac hydroxylase inhibition; S-mephenytoin 25 µM printed as substrate; read-out: IC50 reported by von Moltke et al. (2004); cited from earlier work
# [2] = cited from earlier work
# CYP2C9 [3] = target: T1, CYP2C9; assay: Time-dependent inhibition (IC50 shift) of CYP2C9, diclofenac, human liver microsomes; assay type: in vitro ADME; set-up: incubation mixtures containing pooled human liver microsomes (HLMs, XTreme 200, XenoTech); tissue XenoTech XTreme 200; host or cells: pooled human liver microsomes
# Method: (§1) The time-dependent inhibition of selamariscina A against CYP2C8 and CYP2C9 enzymes was evaluated using an IC50 shift method. Selamariscina A was pre-incubated at six concentrations (0, 0.002, 0.005, 0.02, 0.05, and 0.2 μM) with HLMs in the presence of an NDAPH generation system for 30 min at 37 °C. The reaction was initiated by adding 1 μM amodiaquine or 10 μM diclofenac and further incubated for 10 min. Incubation was terminated by adding 50 μL of ice-cold acetonitrile containing 7 nM trimipramine. After centrifugation, aliquots of supernatants were analyzed by LC–MS/MS.
# (§2) All metabolites and the IS were separated on a Kinetex XB-C18 column (100 × 2.10 mm, 2.6 μm, 100 Å; Phenomenex, Torrance, CA, USA) and analyzed using a Shimadzu LCMS 8060 triple-quadrupole mass spectrometer coupled with a Nexera X2 ultra high-performance liquid chromatography system (Shimadzu, Kyoto, Japan) equipped with an electrospray ionization interface. The mobile phase consisted of 0.1% formic acid in water (A) and 0.1% formic acid in acetonitrile (B). The elution condition was set as 8% B (0–0.5 min), 8%→60% B (0.5–5 min), 60% B (5–6 min), 60%→8% B (6–6.1 min) and 8% B (6.1–9 min) for the analysis of metabolites of P450 probe substrates and set as 0%→40% B (0–1 min), 40%→50% B (1–5 min), 50%→0% B (5–5.1 min), and 0% B (5.1–8 min) for the analysis of metabolites of UGT probe substrates. The flow rate was 0.2 mL/min. Electrospray ionization was performed in positive-ion mode at 4000 V or in negative-ion mode at −3500 V. The optimum operating conditions were determined as follows: vaporizer temperature, 300 °C; capillary temperature, 350 °C; collision gas (argon) pressure, 1.5 mTorr. Quantitation was conducted in selected reaction monitoring (SRM) modes with the precursor-to-product ion transition for each metabolite (Table 1 and Table 2).
# (§3) We analyzed the data with Shimadzu LabSolution LC–MS software. The IC50 values were calculated by WinNonlin software (Pharsight, Mountain View, CA, USA). […]
# UGT1A9 = target: T2, UGT1A9 (Homo sapiens, UniProt O60656); assay: Inhibition of UGT1A9 (mycophenolic acid glucuronidation) in human liver microsomes; assay type: in vitro ADME; conditions: substrate mycophenolic acid; HLMs; average ± standard error
# T2 construct: tissue XenoTech XTreme 200; host or cells: pooled human liver microsomes
# Method: (§4) The ability of selamariscina A to inhibit the metabolism of six UGT enzyme probe substrates was evaluated using previously developed methods with minor modifications. The microsomal incubation was performed by dividing the non-interactive substrate cocktail sets (set A included SN-38 for UGT1A1, CDCA for UGT1A3 and TFP for UGT1A4 while set B included N-SER for UGT1A6, MPA for UGT1A9 and NX for UGT2B7) (Table 2). In brief, HLMs (0.25 mg/mL) were activated by incubation in the presence of alamethicin (25 µg/mL) for 15 min on ice. After the addition of UGT probe substrates and inhibitor (0, 0.5, 2, 5, 20 and 50 μM), the incubation mixtures were pre-incubated at 37 °C for 5 min. […] After centrifugation at 18,000 g (5 min, 4 °C), aliquots of supernatants were analyzed by LC–MS/MS. […]
# (§5) All metabolites and the IS were separated on a Kinetex XB-C18 column (100 × 2.10 mm, 2.6 μm, 100 Å; Phenomenex, Torrance, CA, USA) and analyzed using a Shimadzu LCMS 8060 triple-quadrupole mass spectrometer coupled with a Nexera X2 ultra high-performance liquid chromatography system (Shimadzu, Kyoto, Japan) equipped with an electrospray ionization interface. […] Quantitation was conducted in selected reaction monitoring (SRM) modes with the precursor-to-product ion transition for each metabolite (Table 1 and Table 2).
# (§6) We analyzed the data with Shimadzu LabSolution LC–MS software. […]
# UGT2B7 = target: T3, UGT2B7 (Homo sapiens, UniProt P16662); assay: Inhibition of UGT2B7 (naloxone glucuronidation) in human liver microsomes; assay type: in vitro ADME; conditions: substrate naloxone; HLMs
# T3 construct: tissue XenoTech XTreme 200; host or cells: pooled human liver microsomes
# Method: as §4, §5, §6
# CYP2C8 = target: T4, CYP2C8 (Homo sapiens, UniProt P10632); assay: Time-dependent inhibition (IC50 shift) of CYP2C8, amodiaquine, human liver microsomes; assay type: in vitro ADME; set-up: incubation mixtures containing pooled human liver microsomes (HLMs, XTreme 200, XenoTech); tissue XenoTech XTreme 200; host or cells: pooled human liver microsomes
# T4 sequence (P10632 1-490): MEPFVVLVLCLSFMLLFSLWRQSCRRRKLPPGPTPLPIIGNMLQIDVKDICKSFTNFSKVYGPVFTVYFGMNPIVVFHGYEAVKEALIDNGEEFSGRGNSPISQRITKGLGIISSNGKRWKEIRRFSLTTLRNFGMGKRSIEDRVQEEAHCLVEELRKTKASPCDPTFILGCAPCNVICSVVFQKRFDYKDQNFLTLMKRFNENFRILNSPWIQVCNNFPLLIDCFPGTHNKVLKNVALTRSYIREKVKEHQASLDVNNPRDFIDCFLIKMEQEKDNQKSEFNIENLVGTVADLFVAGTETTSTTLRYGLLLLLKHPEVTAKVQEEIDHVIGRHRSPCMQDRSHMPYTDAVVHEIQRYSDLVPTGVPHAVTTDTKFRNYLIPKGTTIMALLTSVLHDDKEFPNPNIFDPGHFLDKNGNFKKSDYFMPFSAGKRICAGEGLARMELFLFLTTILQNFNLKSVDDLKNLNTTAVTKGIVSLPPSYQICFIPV
# Method: as §1, §2, §3
# T3 sequence (P16662 24-529): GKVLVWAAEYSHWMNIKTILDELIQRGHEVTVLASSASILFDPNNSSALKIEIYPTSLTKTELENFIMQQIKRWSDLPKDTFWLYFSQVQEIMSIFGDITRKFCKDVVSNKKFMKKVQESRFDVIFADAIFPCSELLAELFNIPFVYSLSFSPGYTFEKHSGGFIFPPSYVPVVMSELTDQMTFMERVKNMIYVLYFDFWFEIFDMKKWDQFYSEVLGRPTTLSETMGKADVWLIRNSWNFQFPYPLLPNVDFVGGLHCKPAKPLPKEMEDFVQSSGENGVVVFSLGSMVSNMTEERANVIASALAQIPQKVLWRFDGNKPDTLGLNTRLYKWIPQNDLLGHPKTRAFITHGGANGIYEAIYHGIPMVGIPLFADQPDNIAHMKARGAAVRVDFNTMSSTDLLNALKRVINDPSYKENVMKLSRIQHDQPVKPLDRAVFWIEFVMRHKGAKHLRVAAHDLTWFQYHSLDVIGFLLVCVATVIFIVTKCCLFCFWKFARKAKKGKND
# T1 sequence (P11712 whole entry): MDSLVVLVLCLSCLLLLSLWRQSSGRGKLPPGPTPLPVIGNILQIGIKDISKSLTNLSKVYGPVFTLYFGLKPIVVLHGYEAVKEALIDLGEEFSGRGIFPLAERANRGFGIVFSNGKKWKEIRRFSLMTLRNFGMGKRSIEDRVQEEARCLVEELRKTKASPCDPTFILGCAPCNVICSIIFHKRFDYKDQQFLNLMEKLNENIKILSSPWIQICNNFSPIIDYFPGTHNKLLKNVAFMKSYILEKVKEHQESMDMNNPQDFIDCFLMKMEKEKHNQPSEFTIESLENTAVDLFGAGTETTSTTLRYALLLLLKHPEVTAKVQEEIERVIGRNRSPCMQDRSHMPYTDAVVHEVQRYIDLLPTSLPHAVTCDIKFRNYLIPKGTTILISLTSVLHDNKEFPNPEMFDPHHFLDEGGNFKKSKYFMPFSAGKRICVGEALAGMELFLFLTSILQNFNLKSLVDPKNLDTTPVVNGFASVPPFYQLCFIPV
# T2 sequence (O60656 26-530): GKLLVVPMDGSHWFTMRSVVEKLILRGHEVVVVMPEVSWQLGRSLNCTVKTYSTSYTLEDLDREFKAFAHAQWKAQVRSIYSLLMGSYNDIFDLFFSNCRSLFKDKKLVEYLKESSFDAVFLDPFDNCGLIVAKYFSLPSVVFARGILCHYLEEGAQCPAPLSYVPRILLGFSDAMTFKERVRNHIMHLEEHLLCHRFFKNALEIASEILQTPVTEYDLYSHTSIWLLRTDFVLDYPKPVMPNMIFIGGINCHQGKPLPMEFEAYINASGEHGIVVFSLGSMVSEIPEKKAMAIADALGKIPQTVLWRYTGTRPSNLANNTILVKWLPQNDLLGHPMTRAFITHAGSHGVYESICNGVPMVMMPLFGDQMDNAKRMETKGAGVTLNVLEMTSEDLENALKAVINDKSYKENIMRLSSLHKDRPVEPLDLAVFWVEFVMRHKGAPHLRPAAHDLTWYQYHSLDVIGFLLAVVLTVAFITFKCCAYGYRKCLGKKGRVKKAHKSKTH
Compound,IC50 (CYP2C9 [1]) [nM],"Cmax ([2]; liposome-based Selaginella doderleinii Hieron extracts 200 mg/kg, read-out: Cmax after liposome-based extract) [nM]","Cmax, times higher than control ([2]; liposome-based extracts 200 mg/kg versus control) [times]",Maximum concentration in rat blood ([2]; single oral dose of Selaginella doderleinii Hieron extracts 200 mg/kg) [µM],Maximum concentration in rat blood ([2]; single oral dose of Selaginella doderleinii Hieron extracts 600 mg/kg) [µM],"IC50 (CYP2C9 [3]; 30 min pre-incubation at 37 °C with NADPH generation system, read-out: IC50, CYP2C9 diclofenac, HLMs pre-incubated with NADPH generation system) [nM]",Time-dependent inhibition of CYP2C9 (CYP2C9 [3]; IC50 shift method),"IC50 at 10 min (CYP2C9 [3]; human, human liver microsomes, probe diclofenac (10 μM), no NADPH pre-incubation, read-out: IC50, CYP2C9 diclofenac, untreated HLMs) [nM]",IC50 (UGT1A9) [nM],IC50 (UGT2B7) [nM],"IC50 (CYP2C8; 30 min pre-incubation at 37 °C with NADPH generation system, read-out: IC50, CYP2C8 amodiaquine, HLMs pre-incubated with NADPH generation system) [nM]",Time-dependent inhibition of CYP2C8 (CYP2C8; IC50 shift method),"IC50 (CYP2C8; no NADPH pre-incubation, read-out: IC50, CYP2C8 amodiaquine, untreated HLMs) [nM]"
O=c1cc(-c2ccc(O)c(-c3c(O)cc(O)c4c(=O)cc(-c5ccc(O)cc5)oc34)c2)oc2cc(O)cc(O)c12 [amentoflavone],35,220,5.4,0.041,0.063,,,,,,,,
O=C1CC(c2cc(-c3c(O)ccc4c(=O)cc(-c5ccc(O)cc5)oc34)c(O)cc2O)Oc2cc(O)cc(O)c21 (stereo not shown) [selamariscina A],,,,,,92,not a time-dependent inhibitor,54,40400 ± 11100,> 50000,31,not a time-dependent inhibitor,19

# Source: paper PMC7238120, “Strong and Selective Inhibitory Effects of the Biflavonoid Selamariscina A against CYP2C8 and CYP2C9 Enzyme Activities in Human Liver Microsomes” (Pharmaceutics, 2020)
